Key:
[1] = tested on: Melanocytes (B16 cell line); test: Melanogenesis inhibition assay (melanin level and cellular proteins); format: cell-based; conditions: 3 days incubation; for Melanin level: B16 cells, OD 475 nm
Description: Melanocytes (B16 cell line) are inoculated in standard medium of cell culture with fetal calf serum (FCS). After an incubation of 3 days at 37° C. and CO2=5%, growth medium is exchanged for standard medium with a range of concentrations for the compound to be tested and a control without ingredient. After an incubation of 3 days, the level of melanin is measured by recording the optical density at 475 nm. After washing the cells by a balanced salt, and homogenization in a solution of 0.1 M NaOH, the number of viable cells is determined by the level of cellular proteins (Bradford's method).
The results are expressed in % against control (cell culture medium without compound) as a mean on 1 to 3 assays, each in triplicate.

[2] = tested on: mushroom tyrosinase; test: Mushroom tyrosinase inhibition assay; format: biochemical; conditions: DOPA substrate, pH 6.8
Description: In the melanin biosynthesis pathway, tyrosinase is a key enzyme catalyzing the initial steps: the oxidation of tyrosine into dihydroxyphenylalanine (DOPA) and of DOPA into Dopaquinone. In phosphate buffer at pH 6.8, DOPA is mixed with a range of concentration of the compound to be tested, and a control without compound. After addition of mushroom tyrosinase, oxidation of DOPA is recorded by measuring OD at 475 nm during 30 sec. The % of tyrosinase inhibition is expressed in % against control as a mean of 2-3 assays.

Structure (SMILES): CN(N)C(=O)Nc1ccccc1 [1-amino-1-methyl-3-phenylurea]
- Melanin level ([1]; dose 0.001 % (w/v)): 92 %/control
- Melanin level ([1]; dose 0.003 % (w/v)): 88 %/control
- Protein level (rate of cellular proteins, viable cells by Bradford's method) ([1]; dose 0.001 % (w/v)): 102 %/control
- Protein level (rate of cellular proteins, viable cells by Bradford's method) ([1]; dose 0.003 % (w/v)): 99 %/control

Structure (SMILES): Cc1ccc(NC(=O)NN)c(C)c1 [1-amino-3-(2,4-dimethylphenyl)urea]
- Melanin level ([1]; dose 0.001 % (w/v)): 98 %/control
- Melanin level ([1]; dose 0.003 % (w/v)): 87 %/control
- Protein level (rate of cellular proteins, viable cells by Bradford's method) ([1]; dose 0.001 % (w/v)): 103 %/control
- Protein level (rate of cellular proteins, viable cells by Bradford's method) ([1]; dose 0.003 % (w/v)): 99 %/control

Structure (SMILES): NNC(=O)Nc1ccccc1 [1-amino-3-phenylurea]
- Melanin level ([1]; dose 0.001 % (w/v)): 79 %/control
- Melanin level ([1]; dose 0.003 % (w/v)): 47 %/control
- Melanin level ([1]; dose 0.01 % (w/v)): 19 %/control
- Protein level (rate of cellular proteins, viable cells by Bradford's method) ([1]; dose 0.001 % (w/v)): 95 %/control
- Protein level (rate of cellular proteins, viable cells by Bradford's method) ([1]; dose 0.003 % (w/v)): 94 %/control
- Protein level (rate of cellular proteins, viable cells by Bradford's method) ([1]; dose 0.01 % (w/v)): 104 %/control
- % of tyrosinase inhibition ([2]; dose 0.0001 % (w/v)): 31%
- % of tyrosinase inhibition ([2]; dose 0.001 % (w/v)): 55%
- % of tyrosinase inhibition ([2]; dose 0.01 % (w/v)): 89%
